Legend:
[1] = system: cerebral cortical neural cells; experiment: Lactate dehydrogenase (LDH) cytotoxicity assay after oxygen-glucose deprivation; assay type: cell-based, neonatal rats; parameters: dose or concentration left out as unconfirmed; conditions: added at initiation of oxygen-glucose deprivation; 24 hours after injury; compared to untreated oxygen-glucose deprivation group, p < 0.05
[2] = system: cerebral cortical neural cells; experiment: MTT assay for cell viability after oxygen-glucose deprivation; assay type: cell-based, neonatal rats; parameters: dose or concentration left out as unconfirmed; conditions: added at initiation of oxygen-glucose deprivation; 24 hours after injury; compared to untreated oxygen-glucose deprivation group, p < 0.05

Substance: Davunetide [NaP]
- LDH release levels [1]: significantly reduced
- MTT formation levels [2]: significantly increased

From patent EP4818193A1, “COMPOSITION AND METHOD FOR TREATING NEONATAL HYPOXIC-ISCHEMIC ENCEPHALOPATHY” (Suzhou Glenkol Pharma Technology Co., Ltd., priority 2023, dated 2025)
